Measurements published in PMC8327158, “PEGylated AdipoRon derivatives improve glucose and lipid metabolism under insulinopenic and high-fat diet conditions” (Journal of Lipid Research, 2021).

Test system: HFD-fed wild-type mice
Assay: Sphingolipid levels in tissues and serum of HFD-fed mice by mass spectrometry
Format: in vivo, mouse
Conditions: for Cer 14:0 / Cer 16:0 / Cer 18:0 / Cer 18:1 / Cer 20:0 / Cer 22:0 / Cer 24:0 / Cer 24:1 / Cer 26:0 / Cer 26:1 / DeoxySphinganie / Deoxysphingosine / Hexosyl 14:0 / Hexosyl 16:0 / Hexosyl 18:0 / Hexosyl 20:0 / Hexosyl 22:0 / Hexosyl 24:0 / Hexosyl 24:1 / Lactosyl 16:0 / Lactosyl 18:0 / Lactosyl 22:0 / Lactosyl 24:1 / Lactosyl C24:0 / Sphingaine1P / Sphinganine / Sphingosine / Sphingosine1P / dCer 16:0 / dCer 18:0 / dCer 20:0 / dCer 22:0 / dCer 24:0 / dCer 24:1: 5 mg/kg twice a day 5 days, average ± SD
Procedure: Six-week-old wild-type male mice were fed HFD for 4 weeks or 7 months In total, 5 mg/Kg of PBS, Adiporon, AdipoRonPEG5, AdipoRonPEG6HTL were injected twice a day for 5 days. After 5 days of treatment, systemic test is performed, and serum (Before and after treatment), subcutaneous, epididymal, liver, heart samples were harvested for qPCR and sphingolipid analysis.
Flash-frozen tissue samples (~40 mg) in a borosilicate glass tube were quenched with 2.0 ml of organic extraction solvent (isopropanol: ethyl acetate, 15:85; v:v) and homogenized with a mechanical tissue disruptor. Immediately afterward, 20 μl of organic internal standard solution was added (Ceramide/Sphingoid Internal Standard Mixture II diluted 1:10 in ethanol). The mixture was vortexed for 20 s and sonicated in ultrasonic bath for 40 min at 40°C. The organic extract was allowed to reach room temperature, and 1.5 ml of HPLC water was added and a two-phase liquid-liquid extraction was performed. The upper phase was transferred to a new clean tube, and the lower aqueous phase containing the protein pellet was re-extracted with additional 2.0 ml of organic extraction solvent. The organic phases were combined and dried under nitrogen stream at 40°C. Dried extracts were stored at –80°C until analysis. For analysis of ceramides and sphingoid base species, the dried residues were reconstituted in 200 μl of methanol. Sphingomyelins required a sample dilution of 1:50 in methanol prior to analysis. Serum sphingolipids were extracted using a similar methodology requiring 25 μl of serum.
Liver, subcutaneous adipose tissue, pancreas, pancreatic islets were initially homogenized in 500 μl of cold PBS using an ultrasonic probe disruptor and keeping the sample on ice during sonication. In total, 50 μl of aqueous homogenate was aliquoted for protein determination. In total, 400 μl of the lysate was immediately quenched in 2.0 ml of organic extraction solvent.
In total, 5 μl of reconstituted samples was injected into an LC/MS/MS system for the analysis of ceramides and sphingoid bases, and 1 μl injection was required for the analysis of sphingomyelins. The system consisted of a Shimadzu LCMS-8050 triple-quadrupole mass spectrometer with the dual ion source operating in electrospray positive ionization mode. The mass spectrometer is coupled to a Shimadzu Nexera X2 UHPLC system equipped with three solvent delivery modules LC-30AD, three degassing units DGU-20A5R, an autosampler SIL-30ACMP, and a column oven CTO-20AC operating at 40°C (Shimadzu Scientific Instruments, Columbia, MD). Six sphingoid bases (d18:1 sphingosine, d18:1 sphingosine-1-phosphate, d18:1 deoxysphingosine, d18:0 sphinganine, d18:0 sphinganine-1-phosphate, d18:0 deoxysphinganine) and […] ceramide species and their metabolites (C16:0, C16:0 dihydroceramide, C16:0 glucosylceramide, C16:0 lactosylceramide, C16:0 sphingomyelin, C18:0, C18:0 dihydroceramide, C18:0 glucosylceramide, C18:0 sphingomyelin, C18:1, C20:0, C22:0, C22:0 glucosylceramide, C24:0, C24:0 dihydroceramide, C24:0 lactosylceramide, C24:0 sphingomyelin, C24:1, C24:1 dihydroceramide, C24:1 glucosylceramide, C24:1 sphingomyelin). Quantitative analysis of sphingolipids was achieved using selective reaction monitoring scan mode. Lipid separation was achieved by reverse phase LC on a 2.1 (i.d.) × 150 mm Ascentis Express C8, 2.7 micron (Supelco, Bellefonte, PA) column under gradient elution, using three different mobile phases: eluent A consisting of methanol/water/formic acid, 600/400/0.8, v/v/v with 5 mM ammonium formate, eluent B consisting of methanol/formic acid, 1,000/0.8, v/v with 5 mM ammonium formate, and eluent C consisting of CH3OH/CH2Cl2 350/650. The concentration of each metabolite was determined according to calibration curves using the peak-area ratio of analyte versus corresponding internal standard. Calibration curves were generated using serial dilutions of each target analyte.

## O=C(COc1ccc(C(=O)c2ccccc2)cc1)NC1CCN(Cc2ccc(OCCOCCOCCOCCOCCO)cc2)CC1 [AdipoRonPEG5]
5 mg/kg
  pancreas S1P level: trend of elevating S1P
  pancreas dihydroceramide levels: minimal impact
  scWAT ceramide levels: neither AdipoRon nor AdipoRonPEG5 had a noticeable impact
5 mg/kg, vs saline controls or AdipoRon
  pancreas C24:0 and C24:1 ceramides: significant reduction
IP 5 mg/kg
  hepatic dihydroceramides: drastically reduced
  serum dihydroceramides dC16:0, dC18:0, dC22:0, dC24:0: drastically lowered
  sphingoid bases including S1P in the liver: overall increase
liver
  Cer 14:0: 10700.6 ± 4986.87 pg/mg
  Cer 16:0: 10811.2 ± 3038.11 pg/mg
  Cer 18:0: 41588.7 ± 18827.94 pg/mg
  Cer 18:1: 0 pg/mg
  Cer 20:0: 1285175.8 ± 314117.31 pg/mg
  Cer 22:0: 17214621.7 ± 3730792.66 pg/mg
  Cer 24:0: 13003125.0 ± 3100177.0 pg/mg
  Cer 24:1: 11982004.5 ± 3750645.21 pg/mg
  Cer 26:0: 114936.8 ± 43584.75 pg/mg
  Cer 26:1: 108478.1 ± 38829.61 pg/mg
  DeoxySphinganie: 17056.5 ± 5841.85 pg/mg
  Deoxysphingosine: 674.4 ± 179.33 pg/mg
  Hexosyl 14:0: 9405.4 ± 4098.51 pg/mg
  Hexosyl 16:0: 2563091.7 ± 636477.68 pg/mg
  Hexosyl 18:0: 8702.7 ± 4241.12 pg/mg
  Hexosyl 20:0: 91341.0 ± 29325.4 pg/mg
  Hexosyl 22:0: 18299628.4 ± 6151493.38 pg/mg
  Hexosyl 24:0: 9345685.4 ± 2422218.78 pg/mg
  Hexosyl 24:1: 8806042.3 ± 2575774.26 pg/mg
  Lactosyl 16:0: 857779.3 ± 221964.15 pg/mg
  Lactosyl 18:0: 0.0 ± 0.0 pg/mg
  Lactosyl 22:0: 403630.8 ± 109007.39 pg/mg
  Lactosyl 24:1: 403865.6 ± 85387.31 pg/mg
  Lactosyl C24:0: 284732.8 ± 96368.82 pg/mg
  Sphingaine1P: 124644.1 ± 37940.82 pg/mg
  Sphinganine: 567456.6 ± 215845.28 pg/mg
  Sphingosine: 1814140 ± 638775.97 pg/mg
  Sphingosine1P: 423169.5 ± 201268.1 pg/mg
  dCer 16:0: 7004.1 ± 1704.17 pg/mg
  dCer 18:0: 30523.3 ± 10512.82 pg/mg
  dCer 20:0: 17088.9 ± 5527.47 pg/mg
  dCer 22:0: 85360 ± 20574 pg/mg
  dCer 24:0: 355838.6 ± 67813.11 pg/mg
  dCer 24:1: 64056.2 ± 12063.67 pg/mg
pancreas
  Cer 14:0: 20.8 ± 6.06 pg/mg
  Cer 16:0: 28.6 ± 10.14 pg/mg
  Cer 18:0: 31.4 ± 12.12 pg/mg
  Cer 18:1: 0 pg/mg
  Cer 20:0: 1410.3 ± 372.3 pg/mg
  Cer 22:0: 5266.0 ± 1349.3 pg/mg
  Cer 24:0: 16049.4 ± 4089.83 pg/mg
  Cer 24:1: 7744.9 ± 1489.17 pg/mg
  Cer 26:0: 162.6 ± 42.67 pg/mg
  Cer 26:1: 88.6 ± 17.21 pg/mg
  DeoxySphinganie: 2.4 ± 0.49 pg/mg
  Deoxysphingosine: 0.0 ± 0.0 pg/mg
  Hexosyl 14:0: 4.2 ± 0.35 pg/mg
  Hexosyl 16:0: 2792.5 ± 371.94 pg/mg
  Hexosyl 18:0: 8.8 ± 4.08 pg/mg
  Hexosyl 20:0: 111.6 ± 39.83 pg/mg
  Hexosyl 22:0: 5728.8 ± 1888.49 pg/mg
  Hexosyl 24:0: 3233.9 ± 524.83 pg/mg
  Hexosyl 24:1: 1360.1 ± 170.0 pg/mg
  Lactosyl 16:0: 1043.4 ± 60.99 pg/mg
  Lactosyl 18:0: 61.7 ± 15.72 pg/mg
  Lactosyl 22:0: 258.7 ± 89.43 pg/mg
  Lactosyl 24:1: 337.2 ± 90.18 pg/mg
  Lactosyl C24:0: 2121.1 ± 714.63 pg/mg
  Sphingaine1P: 25.6 ± 5.99 pg/mg
  Sphinganine: 34.5 ± 9.74 pg/mg
  Sphingosine: 219.2 ± 31.51 pg/mg
  Sphingosine1P: 113.2 ± 32.02 pg/mg
  dCer 16:0: 5.7 ± 3.12 pg/mg
  dCer 18:0: 0.0 ± 0.0 pg/mg
  dCer 20:0: 1.9 ± 0.7 pg/mg
  dCer 22:0: 54.2 ± 43.08 pg/mg
  dCer 24:0: 302.0 ± 155.43 pg/mg
  dCer 24:1: 47.3 ± 31.67 pg/mg
scWAT
  Cer 14:0: 32099.4 ± 10520.94 pg/mg
  Cer 16:0: 191093.1 ± 51596.09 pg/mg
  Cer 18:0: 82819.6 ± 17887.79 pg/mg
  Cer 18:1: 21443 ± 6799 pg/mg
  Cer 20:0: 147177.5 ± 8589.73 pg/mg
  Cer 22:0: 712843.5 ± 129405.16 pg/mg
  Cer 24:0: 2685762.3 ± 976754.88 pg/mg
  Cer 24:1: 3013765.2 ± 650894.91 pg/mg
  Cer 26:0: 24885.1 ± 6744.06 pg/mg
  Cer 26:1: 30570.9 ± 6986.86 pg/mg
  DeoxySphinganie: 1329.3 ± 1128.06 pg/mg
  Deoxysphingosine: 0.0 ± 0.0 pg/mg
  Hexosyl 14:0: 5193.4 ± 2870.39 pg/mg
